Data published in patent US20260184669A1, “LIPID COMPOUND AND COMPOSITION FOR DELIVERY OF ACTIVE SUBSTANCE” (KOREA RESEARCH INSTIUTE OF BIOSCIENCE AND BIOTECHNOLOGY, priority 2022, published 2026).

Assays:
female C57BL/6 mice = assay: Protein expression efficiency of fLuc mRNA-LNPs after intramuscular injection (IVIS whole-body luminescence); type: in vivo; settings: for Total flux 1 hour / Total flux 3 hours / Total flux 6 hours / Total flux 48 hours / Total flux 72 hours / Total flux: fLuc mRNA-LNP, intramuscular injection, luminescence at injection site, mice; for Total flux 1 hour: 1 hour after administration; for Total flux 3 hours: 3 hours after administration; for Total flux 6 hours: 6 hours after administration; for Total flux 48 hours: 48 hours after administration; for Total flux 72 hours: 72 hours after administration; for Total flux: after administration; for Fold increase in total flux at 3 h, MC3: relative to control LNP formulated with MC3; for Fold increase in total flux at 3 h, MC3 / Fold increase in total flux at 3 h, SM-102: 3 hours after intramuscular injection; for Fold increase in total flux at 3 h, SM-102: relative to control LNP formulated with SM-102
Method: fLuc mRNA-LNPs formulated using various ionizable lipids were prepared according to the method described in Example 27 and administered in vivo via intramuscular (I. M.) or intravenous (IV.) injection to compare the resulting protein expression efficiency in vivo. As a control, EGFP mRNA-LNPs formulated with commercially available ionizable lipids MC3 or SM-102 were used. All mRNA-LNPs were administered at equal mRNA doses per body weight across different concentration groups (n≥4).
Specifically, the dose of mRNA-LNPs was adjusted to 0.1-0.5 mg/kg of body weight, and the formulation was administered via I.M. or I.V. injection to female C57BL/6 mice (6-10 weeks old, Orient Bio, Korea) Subsequently, […], whole-body luminescence images were acquired using an in vivo imaging system (IVIS Lumina III, PerkinElmer, Walzam, MA, USA). To assess protein expression levels, 200 μL of D-luciferin (15 mg/mL) was administered via intraperitoneal (I.P.) injection 10 minutes prior to imaging. During image acquisition, the animals were anesthetized by inhalation of 3% isoflurane in 97% medical grade oxygen. In addition, the acquired luminescence images were quantitatively analyzed using imaging software (Living Image Software Version 4.4; PerkinElmer, USA).
After intramuscular injection of the fLuc mRNA-LNPs, the luminescence intensity at the injection site was measured over time.
Furthermore, the luminescence intensity at the injection site 3 hours after intramuscular injection was measured, and the relative protein expression efficiency was compared to that of control LNPs formulated with MC3 or SM-102.

[1] = Stability of mRNA-LNPs according to storage temperature and duration; type: physicochemical; settings: for Normalized EE % D-1 / Size (nm) D-1 / PDI D-1: day 1; for Normalized EE % D-7 / PDI D-7 / Size (nm) D-7: day 7; for Normalized EE % D-30 / PDI D-30 / Size (nm) D-30: day 30
Method: Stability of fLuc mRNA-LNPs produced using various ionizable lipids according to the method of Example 27, was assessed by storing the LNPs at 4° C. and 25° C. At 1, 7, and 30 days post-manufacture, the size, PDI, and encapsulation efficiency (EE) of each mRNA-LNPs samples were measured using the methods described in Experimental Examples 2 and 3.

[2] = Size, polydispersity index and surface charge of mRNA-LNP (Malvern Zetasizer Nano ZS90); type: physicochemical; settings: for PDI / size (nm) Number: mRNA-LNP made with the ionizable lipid at its optimal formulation (Table 2); for size (nm) Number: diluted with PBS to 1 μg/mL mRNA; for Zeta (mV): surface charge of mRNA-LNP made with the ionizable lipid at its optimal formulation (Table 2)
Method: Each mRNA-LNPs produced in Example 27 was diluted with PBS to a final mRNA concentration of 1 μg/mL. The size, polydispersity index (PDI), and surface charge of the mRNA-LNPs were then measured using a Malvern Zetasizer Nano ZS90 (Malvern Instruments, UK).
For particles intended for systemic administration, such as via blood vessels, the particle size must be less than 200 nm in order to pass through the endothelial capillaries of the liver. In addition, the size distribution is considered uniform only when the PDI is 0.3 or less, which enables consistent and efficient therapeutic effects (Non-patent document 3 [Danaei, M. et al). Pharmaceutics 2018, 10, 57]).

[3] = mRNA encapsulation efficiency (Quant-IT RiboGreen RNA assay); type: physicochemical; settings: mRNA encapsulation efficiency of mRNA-LNP made with the ionizable lipid; average of two measurements
Method: The mRNA encapsulation efficiency (EE, %) of LNPs containing mRNA was measured using the Quant-IT™ RiboGreen® RNA assay kit (Invitrogen, USA).
The diluted samples were added to each well of a 96-well plate. Group A (without Triton X-100) was supplemented with 50 μL of 1×TE buffer, while Group B (with Triton X-100) was supplemented with 50 μL of 1×TE buffer containing 2% Triton-X 100. To release the encapsulated mRNA, the LNPs were treated with Triton-X 100 and incubated at 37° C. for 10 minutes. Subsequently, 100 μL of ribogreen reagent was added to each well. The fluorescence intensities of Group A and Group B were measured using a multi-plate reader (λex 480 nm, λem 520 nm), and mRNA encapsulation efficiency (%) was calculated using Equation 1 below. The encapsulation efficiency for each LNP was determined as the average of two independent measurements.

Which results are given for `CCCCCCCCCCCOC(=O)CCCCCN(CCCCCCCC(=O)OC(CCCCCCCC)CCCCCCCC)CC(O)CCCCNC(=O)c1cccn1C` (stereo not shown) [Compound 18, Heptadecan-9-yl 8-((2-hydroxy-6-(1-methyl-1H-pyrrole-2-carboxamido)hexyl) (6-oxo-6-(undecyloxy)hexyl)amino)octanoate]?
Total flux 1 hour (female C57BL/6 mice): 1.63E+06; Total flux 3 hours (female C57BL/6 mice): 7.75E+06; Total flux 6 hours (female C57BL/6 mice): 1.56E+07; Total flux 48 hours (female C57BL/6 mice): 1.54E+05; Total flux 72 hours (female C57BL/6 mice): 1.96E+05; Total flux (female C57BL/6 mice): 1.70E+06; Fold increase in total flux at 3 h, MC3 (female C57BL/6 mice): 0.63; Fold increase in total flux at 3 h, SM-102 (female C57BL/6 mice): 0.07; Normalized EE % D-1 ([1]; fLuc mRNA-LNP stored at 4° C.): 88.0%; Size (nm) D-1 ([1]; fLuc mRNA-LNP stored at 4° C.): 124.6 nm; Normalized EE % D-7 ([1]; fLuc mRNA-LNP stored at 4° C.): 85.3%; PDI D-7 ([1]; fLuc mRNA-LNP stored at 4° C.): 0.064; Size (nm) D-7 ([1]; fLuc mRNA-LNP stored at 4° C.): 121.4 nm; Normalized EE % D-30 ([1]; fLuc mRNA-LNP stored at 4° C.): 87.6%; PDI D-30 ([1]; fLuc mRNA-LNP stored at 4° C.): 0.106; Size (nm) D-30 ([1]; fLuc mRNA-LNP stored at 4° C.): 126.6 nm; Normalized EE % D-1 ([1]; fLuc mRNA-LNP stored at 25° C.): 88.0%; PDI D-1 ([1]; fLuc mRNA-LNP stored at 25° C.): 0.145; Size (nm) D-1 ([1]; fLuc mRNA-LNP stored at 25° C.): 124.6 nm; Normalized EE % D-7 ([1]; fLuc mRNA-LNP stored at 25° C.): 85.6%; PDI D-7 ([1]; fLuc mRNA-LNP stored at 25° C.): 0.016; Size (nm) D-7 ([1]; fLuc mRNA-LNP stored at 25° C.): 126.1 nm; Normalized EE % D-30 ([1]; fLuc mRNA-LNP stored at 25° C.): 87.0%; PDI D-30 ([1]; fLuc mRNA-LNP stored at 25° C.): 0.125; Size (nm) D-30 ([1]; fLuc mRNA-LNP stored at 25° C.): 127.5 nm; PDI [2]: 0.145; size (nm) Number [2]: 125 nm; Zeta (mV) [2]: −1.04 mV; EE (%) [3]: 88%

Which results are given for `CCCCCCCCCCCOC(=O)CCCCCN(CCCCCCCC(=O)OC(CCCCCCCC)CCCCCCCC)CC(O)CCCCNC(=O)c1cn(C)cn1` (stereo not shown) [Compound 37, Heptadecan-9-yl 8-((2-hydroxy-6-(1-methyl-1H-imidazole-4-carboxamido)hexyl)(6-oxo-6-(undecyloxy)hexyl)amino)octanoate]?
Total flux 1 hour (female C57BL/6 mice): 7.40E+06; Total flux 3 hours (female C57BL/6 mice): 8.89E+06; Total flux 6 hours (female C57BL/6 mice): 5.97E+06; Total flux 48 hours (female C57BL/6 mice): 2.13E+06; Total flux 72 hours (female C57BL/6 mice): 1.85E+06; Total flux (female C57BL/6 mice): 2.32E+06; Fold increase in total flux at 3 h, MC3 (female C57BL/6 mice): 0.72; Fold increase in total flux at 3 h, SM-102 (female C57BL/6 mice): 0.08; Normalized EE % D-1 ([1]; fLuc mRNA-LNP stored at 4° C.): 89.5%; Size (nm) D-1 ([1]; fLuc mRNA-LNP stored at 4° C.): 114.5 nm; Normalized EE % D-7 ([1]; fLuc mRNA-LNP stored at 4° C.): 89.9%; PDI D-7 ([1]; fLuc mRNA-LNP stored at 4° C.): 0.155; Size (nm) D-7 ([1]; fLuc mRNA-LNP stored at 4° C.): 123.7 nm; Normalized EE % D-30 ([1]; fLuc mRNA-LNP stored at 4° C.): 90.0%; PDI D-30 ([1]; fLuc mRNA-LNP stored at 4° C.): 0.280; Size (nm) D-30 ([1]; fLuc mRNA-LNP stored at 4° C.): 138.7 nm; Normalized EE % D-1 ([1]; fLuc mRNA-LNP stored at 25° C.): 89.5%; PDI D-1 ([1]; fLuc mRNA-LNP stored at 25° C.): 0.154; Size (nm) D-1 ([1]; fLuc mRNA-LNP stored at 25° C.): 114.5 nm; Normalized EE % D-7 ([1]; fLuc mRNA-LNP stored at 25° C.): 88.0%; PDI D-7 ([1]; fLuc mRNA-LNP stored at 25° C.): 0.087; Size (nm) D-7 ([1]; fLuc mRNA-LNP stored at 25° C.): 133.6 nm; Normalized EE % D-30 ([1]; fLuc mRNA-LNP stored at 25° C.): 83.8%; PDI D-30 ([1]; fLuc mRNA-LNP stored at 25° C.): 0.126; Size (nm) D-30 ([1]; fLuc mRNA-LNP stored at 25° C.): 135.7 nm; PDI [2]: 0.154; size (nm) Number [2]: 115 nm; Zeta (mV) [2]: −3.30 mV; EE (%) [3]: 89%
